Key:
GH7 CBHs = test system: GH7 CBHs; design: method as in PMID 18512263; conditions: MUL as substrate of the GH7 CBHs; cited from earlier work
TrCel6A = target: T1, TrCel6A (Trichoderma reesei, UniProt P07987); assay: Inhibition of hydrolysis of 14C-BMCC by TrCel6A; assay type: biochemical; conditions: TrCel6A, 14C-BMCC, 50°C
T1 construct: TrCel6A was purified from the culture filtrate of Tr QM 9414 as described previously; made in house; host or cells: Trichoderma reesei QM 9414 culture filtrate (native producer)
T1 sequence (P07987 25-471): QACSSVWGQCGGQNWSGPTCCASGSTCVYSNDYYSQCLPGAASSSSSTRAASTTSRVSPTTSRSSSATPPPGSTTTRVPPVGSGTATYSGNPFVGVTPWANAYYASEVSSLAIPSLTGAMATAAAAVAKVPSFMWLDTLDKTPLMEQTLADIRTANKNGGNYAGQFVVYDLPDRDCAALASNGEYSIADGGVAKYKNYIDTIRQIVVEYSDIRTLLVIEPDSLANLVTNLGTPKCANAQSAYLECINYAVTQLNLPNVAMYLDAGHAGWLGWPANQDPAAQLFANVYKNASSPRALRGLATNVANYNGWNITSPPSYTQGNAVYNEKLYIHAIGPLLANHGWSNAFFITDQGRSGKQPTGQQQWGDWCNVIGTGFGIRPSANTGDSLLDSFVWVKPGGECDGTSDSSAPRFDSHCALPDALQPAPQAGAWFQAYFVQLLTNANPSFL
From the text: (§1) Here, we characterized the cellobiose and glucose inhibition of TrCel6A and its thermophilic counterpart, CtCel6A [9, 63]. First, the cellobiose inhibition of the synergistic hydrolysis of ^14C-BC by TrCel6A and TrCel5A was studied (Figure 7A). As TrCel6A was less sensitive to cellobiose inhibition than TrCel7A, the contribution of the cellobiose released during hydrolysis was not significant, and an average (DCB/DCB=0) over all time points was used in plotting (DCB/DCB=0) versus [cellobiose] (Figure 7D). No significant systematic variation of DCB/DCB=0 depending on hydrolysis time was observed. As in the case of GH7 CBHs, the IC50 value was found using Equations 5 and 6. Because the IC50 value for synergistic hydrolysis (Table 3) was of the same order as the apparent Ki value reported for TrCel5A [31], we further tested the inhibition of individual TrCel6A. BC is not a good substrate for TrCel6A, but its acid-treated derivative, BMCC, is readily degraded by the enzyme. Therefore, we prepared ^14C-BMCC by the heterogeneous acid hydrolysis of ^14C-BC. […]
(§2) GH6 CBHs were assessed by observing the hydrolysis of ^14C-BMCC. ^14C-BMCC (0.25 g l^-1) was incubated (with shaking at 350 rpm) with CBH (0.25 μM) and N188BG (0.06 μM) in 50 mM sodium acetate buffer, pH 5.0, containing BSA (0.1 g l^-1). […]

CtCel6A = CtCel6A (Chaetomium thermophilum, UniProt G0SD43); assay: Inhibition of hydrolysis of 14C-BMCC by CtCel6A; assay type: biochemical; conditions: CtCel6A, 14C-BMCC, 50°C
Sequence of CtCel6A (G0SD43 entry or part of it): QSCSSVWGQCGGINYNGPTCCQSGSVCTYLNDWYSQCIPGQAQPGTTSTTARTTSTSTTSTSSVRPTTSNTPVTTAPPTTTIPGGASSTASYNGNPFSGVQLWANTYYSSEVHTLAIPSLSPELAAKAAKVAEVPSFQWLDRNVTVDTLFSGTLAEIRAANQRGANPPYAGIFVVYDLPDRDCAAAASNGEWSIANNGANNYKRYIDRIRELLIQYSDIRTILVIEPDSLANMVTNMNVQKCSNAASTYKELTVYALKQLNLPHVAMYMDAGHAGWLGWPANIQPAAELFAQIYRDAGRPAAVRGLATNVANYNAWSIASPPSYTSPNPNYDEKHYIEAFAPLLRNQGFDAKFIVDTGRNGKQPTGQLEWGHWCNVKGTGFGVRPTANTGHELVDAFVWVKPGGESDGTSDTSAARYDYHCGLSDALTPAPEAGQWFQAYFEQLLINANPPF
From the text: as §1, §2

TrCel5A = target: T2, TrCel5A (Trichoderma reesei, UniProt P07982); design: method as in PMID 23410927; conditions: cited from earlier work
T2 construct: TrCel7B, TrCel5A, and TrCel12A were purified from the culture filtrate of Tr QM 9414; made in house; host or cells: Trichoderma reesei QM 9414 culture filtrate (native producer)
T2 sequence (P07982 22-418): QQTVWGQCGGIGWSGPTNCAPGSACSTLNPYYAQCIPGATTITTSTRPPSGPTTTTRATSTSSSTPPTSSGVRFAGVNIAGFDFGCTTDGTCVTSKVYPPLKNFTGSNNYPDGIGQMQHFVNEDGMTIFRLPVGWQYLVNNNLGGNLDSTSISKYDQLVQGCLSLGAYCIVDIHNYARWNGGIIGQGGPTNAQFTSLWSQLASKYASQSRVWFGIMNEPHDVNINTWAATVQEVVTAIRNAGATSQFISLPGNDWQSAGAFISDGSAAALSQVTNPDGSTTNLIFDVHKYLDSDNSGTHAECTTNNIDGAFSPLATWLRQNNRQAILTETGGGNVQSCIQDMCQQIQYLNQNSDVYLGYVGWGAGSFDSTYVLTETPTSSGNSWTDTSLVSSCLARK

Row | Compound | Km (GH7 CBHs) [µM] | times weaker inhibitor than cellobiose (TrCel6A) | times weaker inhibitor than cellobiose (CtCel6A) | inhibition by glucose (TrCel5A)
1 | Cc1cc(=O)oc2cc(O[C@@H]3O[C@H](CO)[C@@H](O[C@@H]4O[C@H](CO)[C@H](O)[C@H](O)[C@H]4O)[C@H](O)[C@H]3O)ccc12 [MUL, 4-methylumbelliferyl-β-lactoside] | ~300 |  |  | 
2 | OC[C@H]1OC(O)[C@H](O)[C@@H](O)[C@@H]1O (stereo partly shown) [glucose, Glucose] |  | approximately 10 times | approximately 10 times | not significantly inhibited

— paper PMC3726336, “Product inhibition of cellulases studied with ^14C-labeled cellulose substrates” (Biotechnology for Biofuels, 2013)
